We go through 30 compounds from patent publication US8207193B2 (priority 2006, dated 2012).

The assay deals with human muscarinic acetylcholine M3 receptor (M3-ACh) (Homo sapiens, UniProt P20309). In words: biochemical. The assay is classed as binding.

Structures are written as SMILES. A value given as a limit tells only on which side of the number the result lay.

human muscarinic acetylcholine M3 receptor (M3-ACh), sequence (P20309 whole entry): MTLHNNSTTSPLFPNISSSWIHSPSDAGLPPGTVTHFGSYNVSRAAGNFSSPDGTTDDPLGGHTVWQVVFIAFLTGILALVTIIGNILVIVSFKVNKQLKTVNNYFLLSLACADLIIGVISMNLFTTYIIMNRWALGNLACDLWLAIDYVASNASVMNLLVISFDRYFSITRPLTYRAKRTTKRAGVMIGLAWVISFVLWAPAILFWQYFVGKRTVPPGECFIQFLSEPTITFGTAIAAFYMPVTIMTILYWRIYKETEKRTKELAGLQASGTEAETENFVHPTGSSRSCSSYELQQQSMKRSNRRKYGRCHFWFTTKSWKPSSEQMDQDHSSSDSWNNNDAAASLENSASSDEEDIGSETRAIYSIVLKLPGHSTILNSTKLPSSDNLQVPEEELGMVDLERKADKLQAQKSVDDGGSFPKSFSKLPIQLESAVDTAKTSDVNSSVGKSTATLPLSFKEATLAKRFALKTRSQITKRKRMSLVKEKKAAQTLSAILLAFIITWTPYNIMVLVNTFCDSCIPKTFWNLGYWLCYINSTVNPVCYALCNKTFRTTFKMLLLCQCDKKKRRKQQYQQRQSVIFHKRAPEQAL

What is called IC50 is the concentration that gives 50% inhibition. Higher therefore signals weaker potency. The compound `C[N+]12CCC(CC1)[C@@H](OC(=O)C1(c3ccccc3)CCCC1)C2` [Comparative Example 2, (3R)-1-Methyl-3-{[(1-phenylcyclopentyl)carbonyl]oxy}-1-azoniabicyclo[2.2.2]octane Iodide, reference compound] showed a 50% inhibitory concentration (IC50) (pIC50 of comparative compounds containing a cyclopentyl (C5) ring in place of cycloheptyl (C7)) of 39.8 nM.

For the compound `C[N+]12CCC(CC1)[C@@H](OC(=O)C1(c3ccccc3)CCCCCC1)C2` [Example 2, (3R)-1-Methyl-3-{[(1-phenylcycloheptyl)carbonyl]oxy}-1-azoniabicyclo[2.2.2]octane Iodide], the IC50 was 2 to 10 nM (M3 binding IC50), 3.16 nM (pIC50) and 3.16 nM (pIC50 of cycloheptyl (C7) compound).

In the case of `O=C(O[C@H]1C[N+]2(CCCOc3ccccc3)CCC1CC2)C1(c2ccccc2)CCCCCC1` [Example 3, (3R)-1-(3-Phenoxypropyl)-3-{[(1-phenylcycloheptyl)carbonyl]oxy}-1-azoniabicyclo[2.2.2]octane Bromide], the IC50 is, setting by setting: (M3 binding IC50) below 2 nM; (pIC50) 0.0501 nM.

Consider `O=C(C[N+]12CCC(CC1)[C@@H](OC(=O)C1(c3ccccc3)CCCCCC1)C2)Nc1ccon1` [Example 4, (3R)-1-[2-(Isoxazol-3-ylamino)-2-oxoethyl]-3-{[(1-phenylcycloheptyl)carbonyl]oxy}-1-azoniabicyclo[2.2.2]octane Bromide], for which the IC50 runs as follows: (M3 binding IC50) below 2 nM; (pIC50) 0.0631 nM.

With `O=C(O[C@H]1C[N+]2(Cc3ccc(F)cc3)CCC1CC2)C1(c2ccccc2)CCCCCC1` [Example 5, (3R)-1-(4-Fluorobenzyl)-3-{[(1-phenylcycloheptyl)carbonyl]oxy}-1-azoniabicyclo[2.2.2]octane Bromide], where the note is “M3 binding IC50”, the IC50 is above 10 nM.

On to `O=C(O[C@H]1C[N+]2(Cc3ccccc3)CCC1CC2)C1(c2ccccc2)CCCCCC1` [Example 6, (3R)-1-Benzyl-3-{[(1-phenylcycloheptyl)carbonyl]oxy}-1-azoniabicyclo[2.2.2]octane Bromide], for which, for the setting “M3 binding IC50”, the half-inhibitory concentration (IC50) was above 10 nM.

For the compound `O=C(O[C@H]1C[N+]2(Cc3cccc(OC(F)(F)F)c3)CCC1CC2)C1(c2ccccc2)CCCCCC1` [Example 7, (3R)-3-{[(1-Phenylcycloheptyl)carbonyl]oxy}-1-[3-(trifluoromethoxy)benzyl]-1-azoniabicyclo[2.2.2]octane Bromide], under “M3 binding IC50”, the half-inhibitory concentration (IC50) is above 10 nM.

With `O=C(O[C@H]1C[N+]2(Cc3ccc(F)c(F)c3)CCC1CC2)C1(c2ccccc2)CCCCCC1` [Example 8, (3R)-1-(3,4-Difluorobenzyl)-3-{[(1-phenylcycloheptyl)carbonyl]oxy}-1-azoniabicyclo[2.2.2]octane Bromide], where the note is “M3 binding IC50”, the IC50 was above 10 nM.

With `O=C(O[C@H]1C[N+]2(Cc3ccc(C(F)(F)F)o3)CCC1CC2)C1(c2ccccc2)CCCCCC1` [Example 9, (3R)-3-{[(1-Phenylcycloheptyl)carbonyl]oxy}-1-{[5-(trifluoromethyl)-2-furyl]methyl}-1-azoniabicyclo[2.2.2]octane Bromide], the IC50 (M3 binding IC50) was above 10 nM.

Consider `COc1cccc(C[N+]23CCC(CC2)[C@@H](OC(=O)C2(c4ccccc4)CCCCCC2)C3)c1` [Example 10, (3R)-1-(3-Methoxybenzyl)-3-{[(1-phenylcycloheptyl)carbonyl]oxy}-1-azoniabicyclo[2.2.2]octane Bromide], for which the IC50 runs as follows: (M3 binding IC50) 2 to 10 nM; (pIC50) 3.16 nM.

`O=C(O[C@H]1C[N+]2(CCOc3ccccc3)CCC1CC2)C1(c2ccccc2)CCCCCC1` [Example 11, (3R)-1-(2-Phenoxyethyl)-3-{[(1-phenylcycloheptyl)carbonyl]oxy}-1-azoniabicyclo[2.2.2]octane bromide] yielded an IC50 (M3 binding IC50) below 2 nM.

`O=C(O[C@H]1C[N+]2(CCOCc3ccccc3)CCC1CC2)C1(c2ccccc2)CCCCCC1` [Example 12, (3R)-1-[2-(Benzyloxy)ethyl]-3-{[(1-phenylcycloheptyl)carbonyl]oxy}-1-azoniabicyclo[2.2.2]octane Bromide]: the 50% inhibitory concentration (IC50) (M3 binding IC50) is below 2 nM.

`O=C(C[N+]12CCC(CC1)[C@@H](OC(=O)C1(c3cccs3)CCCCCC1)C2)Nc1ccon1` [Example 13, (3R)-1-[2-(Isoxazol-3-ylamino)-2-oxoethyl]-3-({[1-(2-thienyl)cycloheptyl]carbonyl}oxy)-1-azoniabicyclo[2.2.2]octane Bromide]: where the note is “M3 binding IC50”, the 50% inhibitory concentration (IC50) was below 2 nM.

`O=C(C[N+]12CCC(CC1)[C@@H](OC(=O)C1(c3ccccc3)CCCCCC1)C2)N1CCCC1` [Example 14, (3R)-1-(2-Oxo-2-pyrrolidin-1-ylethyl)-3-{[(1-phenylcycloheptyl)carbonyl]oxy}-1-azoniabicyclo[2.2.2]octane Bromide] returned an IC50 (M3 binding IC50) of 2 to 10 nM.

As to `O=C(C[N+]12CCC(CC1)[C@@H](OC(=O)C1(c3ccccc3)CCCCCC1)C2)N1CCOCC1` [Example 15, (3R)-1-(2-Morpholin-4-yl-2-oxoethyl)-3-{[(1-phenylcycloheptyl)carbonyl]oxy}-1-azoniabicyclo[2.2.2]octane Bromide], where the note is “M3 binding IC50”, the 50% inhibitory concentration (IC50) fell in the range of 2 to 10 nM.

As to `O=C(C[N+]12CCC(CC1)[C@@H](OC(=O)C1(c3ccccc3)CCCCCC1)C2)Nc1cccnn1` [Example 17, (3R)-1-[2-Oxo-2-(pyridazin-3-ylamino)ethyl]-3-{[(1-phenylcycloheptyl)carbonyl]oxy}-1-azoniabicyclo[2.2.2]octane Bromide], the IC50 (M3 binding IC50) is below 2 nM.

Consider `O=C(C[N+]12CCC(CC1)[C@@H](OC(=O)C1(c3ccccc3)CCCCCC1)C2)NCCOc1ccccc1` [Example 18, (3R)-1-{2-Oxo-2-[(2-phenoxyethyl)amino]ethyl}-3-{[(1-phenylcycloheptyl)carbonyl]oxy}-1-azoniabicyclo[2.2.2]octane Bromide], for which the IC50 (M3 binding IC50) was below 2 nM.

Where the note is “M3 binding IC50”, `O=C(C[N+]12CCC(CC1)[C@@H](OC(=O)C1(c3ccccc3)CCCCCC1)C2)c1cccc(F)c1` [Example 19, (3R)-1-[2-(3-Fluorophenyl)-2-oxoethyl]-3-{[(1-phenylcycloheptyl)carbonyl]oxy}-1-azoniabicyclo[2.2.2]octane Bromide] registered an IC50 below 2 nM.

The compound `Cc1cc(NC(=O)C[N+]23CCC(CC2)[C@@H](OC(=O)C2(c4ccccc4)CCCCCC2)C3)no1` [Example 20, (3R)-1-{2-[(5-Methylisoxazol-3-yl)amino]-2-oxoethyl}-3-{[(1-phenylcycloheptyl)carbonyl]oxy}-1-azoniabicyclo[2.2.2]octane Bromide] displayed an IC50 (M3 binding IC50) below 2 nM.

`O=C(C[N+]12CCC(CC1)[C@@H](OC(=O)C1(c3ccccc3)CCCCCC1)C2)Nc1ccc(Cl)nn1` [Example 21, (3R)-1-{2-[(6-Chloropyridazin-3-yl)amino]-2-oxoethyl}-3-{[(1-phenylcycloheptyl)carbonyl]oxy}-1-azoniabicyclo[2.2.2]octane Bromide] showed a half-inhibitory concentration (IC50) (M3 binding IC50) below 2 nM.

Regarding `O=C(C[N+]12CCC(CC1)[C@@H](OC(=O)C1(c3ccccc3)CCCCCC1)C2)Nc1cccc(F)c1` [Example 22, (3R)-1-{2-[(3-Fluorophenyl)amino]-2-oxoethyl}-3-{[(1-phenylcycloheptyl)carbonyl]oxy}-1-azoniabicyclo[2.2.2]octane Bromide], where the note is “M3 binding IC50”, the half-inhibitory concentration (IC50) is below 2 nM.

Regarding `O=C(O[C@H]1C[N+]2(CCc3ccc4ccccc4c3)CCC1CC2)C1(c2ccccc2)CCCCCC1` [Example 23, (3R)-1-[2-(2-Naphthyl)ethyl]-3-{[(1-phenylcycloheptyl)carbonyl]oxy}-1-azoniabicyclo[2.2.2]octane Bromide], where the note is “M3 binding IC50”, the IC50 is below 2 nM.

Compound `COc1cccc(CC[N+]23CCC(CC2)[C@@H](OC(=O)C2(c4ccccc4)CCCCCC2)C3)c1` [Example 24, (3R)-1-[2-(3-Methoxyphenyl)ethyl]-3-{[(1-phenylcycloheptyl)carbonyl]oxy}-1-azoniabicyclo[2.2.2]octane Bromide] returned a 50% inhibitory concentration (IC50) (M3 binding IC50) below 2 nM.

`Cc1ccc(CC[N+]23CCC(CC2)[C@@H](OC(=O)C2(c4ccccc4)CCCCCC2)C3)s1` [Example 25, (3R)-1-[2-(5-Methyl-2-thienyl)ethyl]-3-{[(1-phenylcycloheptyl)carbonyl]oxy}-1-azoniabicyclo[2.2.2]octane Bromide] came in with an IC50 (M3 binding IC50) below 2 nM.

In the case of `O=C(O[C@H]1C[N+]2(CCc3ccccc3)CCC1CC2)C1(c2ccccc2)CCCCCC1` [Example 26, (3R)-3-{[(1-Phenylcycloheptyl)carbonyl]oxy}-1-(2-phenylethyl)-1-azoniabicyclo[2.2.2]octane Bromide], the IC50 (M3 binding IC50) was below 2 nM.

Regarding `O=C(O[C@H]1C[N+]2(CCc3cccc(C(F)(F)F)c3)CCC1CC2)C1(c2ccccc2)CCCCCC1` [Example 27, (3R)-3-{[(1-Phenylcycloheptyl)carbonyl]oxy}-1-{2-[3-(trifluoromethyl)phenyl]ethyl}-1-azoniabicyclo[2.2.2]octane Bromide], the 50% inhibitory concentration (IC50) (M3 binding IC50) was below 2 nM.

The compound `O=C(O[C@H]1C[N+]2(CCc3ccc4c(c3)OCO4)CCC1CC2)C1(c2ccccc2)CCCCCC1` [Example 28, (3R)-1-[2-(1,3-Benzodioxol-5-yl)ethyl]-3-{[(1-phenylcycloheptyl)carbonyl]oxy}-1-azoniabicyclo[2.2.2]octane bBromide] displayed an IC50 (M3 binding IC50) below 2 nM.

Take `N#Cc1ccc(CC[N+]23CCC(CC2)[C@@H](OC(=O)C2(c4ccccc4)CCCCCC2)C3)cc1` [Example 29, (3R)-1-[2-(4-Cyanophenyl)ethyl]-3-{[(1-phenylcycloheptyl)carbonyl]oxy}-1-azoniabicyclo[2.2.2]octane Bromide]: the IC50 (M3 binding IC50) was in the range of 2 to 10 nM.

In turn, `O=C1c2ccccc2C(=O)N1CC[N+]12CCC(CC1)[C@@H](OC(=O)C1(c3ccccc3)CCCCCC1)C2` [Example 30, (3R)-1-[2-(1,3-Dioxo-1,3-dihydro-2H-isoindol-2-yl)ethyl]-3-{[(1-phenylcycloheptyl)carbonyl]oxy}-1-azoniabicyclo[2.2.2]octane Bromide] yielded an IC50 (M3 binding IC50) above 10 nM.

Where the note is “M3 binding IC50”, `O=C(C[N+]12CCC(CC1)[C@@H](OC(=O)C1(c3ccccc3)CCCCCC1)C2)Nc1cncc(Cl)n1` [Example 31, (3R)-1-{2-[(6-Chloropyrazin-2-yl)amino]-2-oxoethyl}-3-{[(1-phenylcycloheptyl)carbonyl]oxy}-1-azoniabicyclo[2.2.2]octane Bromide] had a concentration for half-maximal inhibition (IC50) below 2 nM.
